Measured values from US9598433B2, “Hepatitis C virus inhibitors” (BRISTOL-MYERS SQUIBB COMPANY, priority 2012, dated 2017).
Where two headings read alike, the source gives them in different places.

Experiments:
[1] = system: HCV genotype 1a (H77 strain) replicon in HUH-7 cells; assay: HCV replicon luciferase reporter assay, genotype 1a; type: cell-based; details: Hepatitis C virus, 72 h, genotype 1a replicon, 3 days incubation
How it was run: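 Stable HUH-7 line carrying luciferase-reporter genotype 1a (H77) replicon with adaptive NS3 P1496L and NS5A S2204I mutations; 3.0×10^3 cells/well in 4% FCS, 0.5% DMSO, twenty-point 3-fold titration, 3 days at 37 °C. Renilla luminescence with 7.5 μM EnduRen; EC50 by four-parameter logistic fit; CC50 by multiplexed Cell Titer-Blue.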

[2] = system: HCV genotype 1b (Con1) replicon in HUH-7 cells; assay: HCV replicon luciferase reporter assay, genotype 1b; type: cell-based; details: Hepatitis C virus, 72 h, genotype 1b replicon, 3 days incubation
How it was run: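 The HUH-7 cells stably carried a genotype 1b Con1 replicon with a Renilla luciferase reporter and the S1179I adaptive mutation. Luminescence was read after 2 h with 7.5 μM EnduRen, and EC50s came from four-parameter logistic fits.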

Work on COc1cc(F)cc2c(O[C@@H]3C[C@H]4C(=O)N[C@]5(C(=O)NS(=O)(=O)C6(C)CC6)C[C@H]5/C=C\CC[C@@H](C)O[C@@H](C)[C@H](NC(=O)OC(C)(C)C(F)F)C(=O)N4C3)nccc12 [Compound 2019, 1,1-difluoro-2-methylpropan-2-yl ((2R,6S,7S,9R,13aS,14aR,16aS,Z)-2-((7-fluoro-5-methoxyisoquinolin-1-yl)oxy)-7,9-dimethyl-14a-(((1-methylcyclopropyl)sulfonyl)carbamoyl)-5,16-dioxo-2,3,5,6,7,9,10,11,13a,14,14a,15,16,16a-tetradecahydro-1H-cyclopropa[i]pyrrolo[1,2-e][1,5,8]oxadiazacyclopentadecin-6-yl)carbamate] yielded an EC50 ([1]; read-out: LE_1a (EC50, range)) of 1.01 to 5 nM and an EC50 ([2]; read-out: LE_1b (EC50, range)) of 0.51 to 1 nM.

COc1cc(F)cc2c(O[C@@H]3C[C@H]4C(=O)N[C@]5(C(=O)NS(=O)(=O)C6(CF)CC6)C[C@H]5/C=C\CC[C@@H](C)O[C@@H](C)[C@H](NC(=O)OC(C)(C)C(F)(F)F)C(=O)N4C3)nccc12 [Compound 2020, 1,1,1-trifluoro-2-methylpropan-2-yl ((2R,6S,7S,9R,13aS,14aR,16aS,Z)-2-((7-fluoro-5-methoxyisoquinolin-1-yl)oxy)-14a-(((1-(fluoromethyl)cyclopropyl)sulfonyl)carbamoyl)-7,9-dimethyl-5,16-dioxo-2,3,5,6,7,9,10,11,13a,14,14a,15,16,16a-tetradecahydro-1H-cyclopropa[i]pyrrolo[1,2-e][1,5,8]oxadiazacyclopentadecin-6-yl)carbamate] showed an EC50 ([1]; read-out: LE_1a (EC50, range)) of 1.01 to 5 nM and an EC50 ([2]; read-out: LE_1b (EC50, range)) of 0.51 to 1 nM.

Work on COc1cc(F)cc2c(O[C@@H]3C[C@H]4C(=O)N[C@]5(C(=O)NS(=O)(=O)C6(CF)CC6)C[C@H]5/C=C\CC[C@@H](C)O[C@@H](C)[C@H](NC(=O)OC(C)(C)C(C)(F)F)C(=O)N4C3)nccc12 [Compound 2021, 3,3-difluoro-2-methylbutan-2-yl ((2R,6S,7S,9R,13aS,14aR,16aS,Z)-2-((7-fluoro-5-methoxyisoquinolin-1-yl)oxy)-14a-(((1-(fluoromethyl)cyclopropyl)sulfonyl)carbamoyl)-7,9-dimethyl-5,16-dioxo-2,3,5,6,7,9,10,11,13a,14,14a,15,16,16a-tetradecahydro-1H-cyclopropa[i]pyrrolo[1,2-e][1,5,8]oxadiazacyclopentadecin-6-yl)carbamate] yielded an EC50 ([1]; read-out: LE_1a (EC50, range)) of 1.01 to 5 nM and an EC50 ([2]; read-out: LE_1b (EC50, range)) of 0.51 to 1 nM.

Compound COc1cc(F)cc2c(O[C@@H]3C[C@H]4C(=O)N[C@]5(C(=O)NS(=O)(=O)C6(CF)CC6)C[C@H]5/C=C\CC[C@@H](C)O[C@@H](C)[C@H](NC(=O)OC(C)(C)C(F)F)C(=O)N4C3)nccc12 [Compound 2022, 1,1-difluoro-2-methylpropan-2-yl ((2R,6S,7S,9R,13aS,14aR,16aS,Z)-2-((7-fluoro-5-methoxyisoquinolin-1-yl)oxy)-14a-(((1-(fluoromethyl)cyclopropyl)sulfonyl)carbamoyl)-7,9-dimethyl-5,16-dioxo-2,3,5,6,7,9,10,11,13a,14,14a,15,16,16a-tetradecahydro-1H-cyclopropa[i]pyrrolo[1,2-e][1,5,8]oxadiazacyclopentadecin-6-yl)carbamate] has an EC50 ([1]; read-out: LE_1a (EC50, range)) of 1.01 to 5 nM and an EC50 ([2]; read-out: LE_1b (EC50, range)) of 1.01 to 5 nM.

In the case of CC[C@@H]1O[C@H](C)CC/C=C\[C@@H]2C[C@@]2(C(=O)NS(=O)(=O)C2(C)CC2)NC(=O)[C@@H]2C[C@@H](Oc3nc4c(c5ccccc35)CCCO4)CN2C(=O)[C@H]1NC(=O)OC(C)(C)C(C)(F)F [Compound 2301, 3,3-difluoro-2-methylbutan-2-yl ((2R,6S,7S,9R,13aS,14aR,16aS,Z)-2-((2,3-dihydro-1H-pyrano[2,3-c]isoquinolin-6-yl)oxy)-7-ethyl-9-methyl-14a-(((1-methylcyclopropyl)sulfonyl)carbamoyl)-5,16-dioxo-2,3,5,6,7,9,10,11,13a,14,14a,15,16,16a-tetradecahydro-1H-cyclopropa[i]pyrrolo[1,2-e][1,5,8]oxadiazacyclopentadecin-6-yl)carbamate], the EC50 ([1]; read-out: LE_1a (EC50, range)) is reported as 0.51 to 1 nM and the EC50 ([2]; read-out: LE_1b (EC50, range)) is reported as 0.1 to 0.5 nM.

Work on CC[C@@H]1O[C@H](C)CC/C=C\[C@@H]2C[C@@]2(C(=O)NS(=O)(=O)C2(C)CC2)NC(=O)[C@@H]2C[C@@H](Oc3nc4c(c5ccccc35)CCCO4)CN2C(=O)[C@H]1NC(=O)OC(C)(C)C(F)(F)F [Compound 2302, 1,1,1-trifluoro-2-methylpropan-2-yl ((2R,6S,7S,9R,13aS,14aR,16aS,Z)-2-((2,3-dihydro-1H-pyrano[2,3-c]isoquinolin-6-yl)oxy)-7-ethyl-9-methyl-14a-(((1-methylcyclopropyl)sulfonyl)carbamoyl)-5,16-dioxo-2,3,5,6,7,9,10,11,13a,14,14a,15,16,16a-tetradecahydro-1H-cyclopropa[i]pyrrolo[1,2-e][1,5,8]oxadiazacyclopentadecin-6-yl)carbamate] yielded an EC50 ([1]; read-out: LE_1a (EC50, range)) of 0.51 to 1 nM and an EC50 ([2]; read-out: LE_1b (EC50, range)) of 0.1 to 0.5 nM.

C[C@@H]1CC/C=C\[C@@H]2C[C@@]2(C(=O)NS(=O)(=O)C2(C)CC2)NC(=O)[C@@H]2C[C@@H](Oc3nc4c(c5ccccc35)CCCO4)CN2C(=O)[C@@H](NC(=O)OC(C)(C)C(C)(F)F)[C@H](C)O1 [Compound 2303, 3,3-difluoro-2-methylbutan-2-yl ((2R,6S,7S,9R,13aS,14aR,16aS,Z)-2-((2,3-dihydro-1H-pyrano[2,3-c]isoquinolin-6-yl)oxy)-7,9-dimethyl-14a-(((1-methylcyclopropyl)sulfonyl)carbamoyl)-5,16-dioxo-2,3,5,6,7,9,10,11,13a,14,14a,15,16,16a-tetradecahydro-1H-cyclopropa[i]pyrrolo[1,2-e][1,5,8]oxadiazacyclopentadecin-6-yl)carbamate] was tested, and the EC50 ([1]; read-out: LE_1a (EC50, range)) was 0.51 to 1 nM and the EC50 ([2]; read-out: LE_1b (EC50, range)) was 0.51 to 1 nM.

With C[C@@H]1CC/C=C\[C@@H]2C[C@@]2(C(=O)NS(=O)(=O)C2(C)CC2)NC(=O)[C@@H]2C[C@@H](Oc3nc4c(c5ccccc35)CCCO4)CN2C(=O)[C@@H](NC(=O)OC(C)(C)C(F)F)[C@H](C)O1 [Compound 2304, 1,1-difluoro-2-methylpropan-2-yl ((2R,6S,7S,9R,13aS,14aR,16aS,Z)-2-((2,3-dihydro-1H-pyrano[2,3-c]isoquinolin-6-yl)oxy)-7,9-dimethyl-14a-(((1-methylcyclopropyl)sulfonyl)carbamoyl)-5,16-dioxo-2,3,5,6,7,9,10,11,13a,14,14a,15,16,16a-tetradecahydro-1H-cyclopropa[i]pyrrolo[1,2-e][1,5,8]oxadiazacyclopentadecin-6-yl)carbamate] the EC50 ([1]; read-out: LE_1a (EC50)) was 0.49 nM, the EC50 ([1]; read-out: LE_1a (EC50, range)) was 0.1 to 0.5 nM and the EC50 ([2]; read-out: LE_1b (EC50)) was 0.64 nM. It also gave an EC50 ([2]; read-out: LE_1b (EC50, range)) of 0.51 to 1 nM.

C[C@@H]1CC/C=C\[C@@H]2C[C@@]2(C(=O)NS(=O)(=O)C2(C)CC2)NC(=O)[C@@H]2C[C@@H](Oc3nc4c(c5ccccc35)CCCO4)CN2C(=O)[C@@H](NC(=O)OC(C)(C)C(F)(F)F)[C@H](C)O1 [Compound 2305, 1,1,1-trifluoro-2-methylpropan-2-yl ((2R,6S,7S,9R,13aS,14aR,16aS,Z)-2-((2,3-dihydro-1H-pyrano[2,3-c]isoquinolin-6-yl)oxy)-7,9-dimethyl-14a-(((1-methylcyclopropyl)sulfonyl)carbamoyl)-5,16-dioxo-2,3,5,6,7,9,10,11,13a,14,14a,15,16,16a-tetradecahydro-1H-cyclopropa[i]pyrrolo[1,2-e][1,5,8]oxadiazacyclopentadecin-6-yl)carbamate] gave an EC50 ([1]; read-out: LE_1a (EC50, range)) of 0.51 to 1 nM and an EC50 ([2]; read-out: LE_1b (EC50, range)) of 0.51 to 1 nM.

With COc1ccc2c(O[C@@H]3C[C@H]4C(=O)N[C@]5(C(=O)NS(=O)(=O)C6(C)CC6)C[C@H]5/C=C\CC[C@@H](C)O[C@@H](C)[C@H](NC(=O)OC(C)(C)C(F)(F)F)C(=O)N4C3)nc3c(c2c1)CCCO3 [Compound 2306, 1,1,1-trifluoro-2-methylpropan-2-yl ((2R,6S,7S,9R,13aS,14aR,16aS,Z)-2-((9-methoxy-2,3-dihydro-1H-pyrano[2,3-c]isoquinolin-6-yl)oxy)-7,9-dimethyl-14a-(((1-methylcyclopropyl)sulfonyl)carbamoyl)-5,16-dioxo-2,3,5,6,7,9,10,11,13a,14,14a,15,16,16a-tetradecahydro-1H-cyclopropa[i]pyrrolo[1,2-e][1,5,8]oxadiazacyclopentadecin-6-yl)carbamate] the EC50 ([1]; read-out: LE_1a (EC50, range)) was 0.1 to 0.5 nM and the EC50 ([2]; read-out: LE_1b (EC50, range)) was 0.1 to 0.5 nM.

CC[C@@H]1O[C@H](C)CC/C=C\[C@@H]2C[C@@]2(C(=O)NS(=O)(=O)C2(C)CC2)NC(=O)[C@@H]2C[C@@H](Oc3nc4c(c5cc(OC)ccc35)CCCO4)CN2C(=O)[C@H]1NC(=O)OC(C)(C)C(F)(F)F [Compound 2307, 1,1,1-trifluoro-2-methylpropan-2-yl ((2R,6S,7S,9R,13aS,14aR,16aS,Z)-7-ethyl-2-((9-methoxy-2,3-dihydro-1H-pyrano[2,3-c]isoquinolin-6-yl)oxy)-9-methyl-14a-(((1-methylcyclopropyl)sulfonyl)carbamoyl)-5,16-dioxo-2,3,5,6,7,9,10,11,13a,14,14a,15,16,16a-tetradecahydro-1H-cyclopropa[i]pyrrolo[1,2-e][1,5,8]oxadiazacyclopentadecin-6-yl)carbamate] gave an EC50 ([1]; read-out: LE_1a (EC50, range)) of 0.1 to 0.5 nM and an EC50 ([2]; read-out: LE_1b (EC50, range)) of 0.1 to 0.5 nM.

CC[C@@H]1O[C@H](C)CC/C=C\[C@@H]2C[C@@]2(C(=O)NS(=O)(=O)C2(C)CC2)NC(=O)[C@@H]2C[C@@H](Oc3nc4c(c5cc(OC)ccc35)CCCO4)CN2C(=O)[C@H]1NC(=O)OC(C)(C)C(C)(F)F [Compound 2308, 3,3-difluoro-2-methylbutan-2-yl ((2R,6S,7S,9R,13aS,14aR,16aS,Z)-7-ethyl-2-((9-methoxy-2,3-dihydro-1H-pyrano[2,3-c]isoquinolin-6-yl)oxy)-9-methyl-14a-(((1-methylcyclopropyl)sulfonyl)carbamoyl)-5,16-dioxo-2,3,5,6,7,9,10,11,13a,14,14a,15,16,16a-tetradecahydro-1H-cyclopropa[i]pyrrolo[1,2-e][1,5,8]oxadiazacyclopentadecin-6-yl)carbamate] gave an EC50 ([1]; read-out: LE_1a (EC50, range)) of 0.1 to 0.5 nM and an EC50 ([2]; read-out: LE_1b (EC50, range)) of 0.1 to 0.5 nM.
